Test results from patent publication US20120003661A1, “METHODS AND DEVICES FOR THE SELECTIVE DETECTION OF MICROORGANISMS” (C3 JIAN, INC., priority 2010, published 2012).
Entries after “also recorded” stand apart in the source; their conditions may differ. Where two headings read alike, the source gives them in different places.

Test system: bacteria, fungi, and/or yeasts
Format: binding
[1] = microorganism(s) the targeting peptide binds, as listed in Table 2
[2] = microorganism(s) that the targeting peptide binds, as listed in Table 2
[3] = microorganism(s) listed as target(s) of the targeting peptide, wrapped target lists given cell by cell

## 1T-218 (KLIFAALGLVFLLIGLRDSRSK)
[1]
  Target(s): F. nucleatum, S. sanguinis

## 1T-94 (DQVAHSGDMLVQARRRDS)
[1]
  Target(s): S. mitis, S. mutans, S. oralis

## PF-C143 (VVFGGGDRLV)
[2]
  Target(s): A. naeslundii, F. nucleatum, P. gingivalis,; also recorded: S. mutans, T. denticola

## PF-S007 (VVAGVVLLTALAVGSKRKEKKQIKEIQRLLAATR)
[2]
  Target(s): S. epidermidis, MRSA

## PF-C135 (KNTHAYLRVLRLSSLILSYQASVYPLFAYLCQQKDY)
[2]
  Target(s): A. naeslundii, F. nucleatum, P. gingivalis,; also recorded: S. mutans

## PF-C085 (KKFKIFVIINWFYHKYIILNFEENF)
[2]
  Target(s): A. naeslundii, F. nucleatum, P. gingivalis,; also recorded: S. mutans, T. denticola

## PF-C055 (YNLSIYIYFLHTITIAGLITLPFII)
[2]
  Target(s): A. naeslundii, F. nucleatum, P. gingivalis,; also recorded: S. mutans

## 1T-74 (DIDWGRKISCAAGVAYGAIDGCATTV)
[1]
  Target(s): S. pneumoniae

## PF-037 (MTKKRRYDTTEFGLAHSMTAKITLHQALYK)
[3]
  Target(s): S. epidermidis, M. luteus, P. aeruginosa,; also recorded: C. albicans, MRSA,; also recorded: S. pneumoniae, E. faecalis, C. jeikeium

## PF-800 (WYYFDNNGYM)
[2]
  Target(s): S. mutans

## 1T-27 (ALFVSLEQFLVVVAKSVFALCHSGTLS)
[1]
  Target(s): S. mutans, S. aureus, S. epidermidis,; also recorded: C. jeikeium, C. xerosis,; also recorded: C. striatum, P. aeruginosa

## 1T-172 (FEGLKNLLGDDII)
[1]
  Target(s): A. naeslundii, F. nucleatum, P. gingivalis,; also recorded: S. epidermidis, S. gordonii,; also recorded: S. mitis, S. mutans, S. oralis,; also recorded: S. salivarious, S. sanguinis

## PF-156 (LITAEQPATAPIAGK)
[3]
  Target(s): S. epidermidis, C. jeikeium

## 1T-116 (MILHRRRDR)
[1]
  Target(s): A. naeslundii, P. gingivalis, S. epidermidis,; also recorded: S. gordonii, S. mitis,; also recorded: S. mutans, S. oralis, S. salivarious,; also recorded: S. sanguinis

## PF-C065 (DEERYSDSYFLKEKVFYLILALFLILFHQKYLYFLEIITI)
[2]
  Target(s): A. naeslundii, F. nucleatum, P. gingivalis,; also recorded: S. mutans

## 1T-250 (LVQGDTILIENHVGTPVKDDGKDCLIIREADVLAVVND)
[3]
  Target(s): S. mitis, S. mutans, S. oralis

## 1T-28 (VSRDEAMEFIDREWTTLQPAGKSHA)
[1]
  Target(s): P. aeruginosa

## PF-135 (PPARPARIPQTPTLHGASLFRQRS)
[3]
  Target(s): S. epidermidis, M. luteus, E. coli,; also recorded: P. aeruginosa, MRSA, C. jeikeium,; also recorded: M. smegmatis

## PF-C071 (QVIVKIL)
[2]
  Target(s): A. naeslundii, F. nucleatum, S. mutans

## PF-124 (MADGQIAAIAKLHGVPVATRNIRHFQSFGVELINPWSG)
[3]
  Target(s): S. epidermidis, M. luteus, P. mirabilis,; also recorded: E. coli, P. aeruginosa,; also recorded: C. albicans, MRSA, E. faecalis,; also recorded: C. jejuni

## PF-146 (GCGKRRIITKSASRDTR)
[3]
  Target(s): S. epidermidis, M. luteus, P. aeruginosa,; also recorded: C. albicans, MRSA,; also recorded: C. jeikeium

## PF-004 (ARLSKAIIIAVIVVYHLDVRGLF)
[3]
  Target(s): S. epidermidis, B. subtilis, B. fragilis,; also recorded: E. coli, P. aeruginosa, C. albicans,; also recorded: S. pneumoniae, E. faecalis,; also recorded: C. jeikeium

## PF-172 (LTGVRRPWRAPWAGTSGWALR)
[3]
  Target(s): S. epidermidis, M. luteus, E. coli,; also recorded: P. aeruginosa, MRSA, E. faecalis,; also recorded: C. jejuni

## 1T-234 (DNFYLILKMEERGKSKKTSQTRGFRAFFDIIRKKIKKEDGK)
[1]
  Target(s): A. naeslundii, F. nucleatum, P. gingivalis,; also recorded: S. epidermidis, S. gordonii,; also recorded: S. mitis, S. mutans, S. oralis,; also recorded: S. salivarious, S. sanguinis

## 1T-170 (AYGKVFSMDIMLSENDKLIVLRISHHSAWH)
[1]
  Target(s): P. gingivalis

## 1T-30 (GKAKPYQVRQVLRAVDKLETRRKKGGR)
[1]
  Target(s): S. aureus, S. epidermidis, C. xerosis,; also recorded: C. striatum, P. aeruginosa

## PF-123 (TTRPQVAEDRQLDDALKETFPASDPISP)
[3]
  Target(s): M. luteus, E. coli

## PF-C052 (SRFRNGV)
[2]
  Target(s): A. naeslundii, F. nucleatum, S. mutans

## 1T-154 (YFSFLEIVGMARR)
[1]
  Target(s): P. gingivalis

## 1T-128 (SGSAIRMLEIATKMLKR)
[1]
  Target(s): A. naeslundii, P. gingivalis, S. epidermidis,; also recorded: S. gordonii, S. mitis,; also recorded: S. mutans, S. oralis, S. salivarious,; also recorded: S. sanguinis

## PF-074 (RDIHPIYFMTKD)
[3]
  Target(s): S. epidermidis, M. luteus, MRSA

## PF-104 (ERTAVNDLWI)
[3]
  Target(s): MRSA, C. jeikeium

## 1T-79 (FGTPWSITNFWKKNFNDRPDFDSDRRRY)
[1]
  Target(s): S. pneumoniae

## 1T-199 (RAGRIKKLSQKEAEPFEN)
[1]
  Target(s): S. sanguinis

## 1T-242 (KQVQNTTLIICGTVLLGILFKSYLKSQKSV)
[1]
  Target(s): F. nucleatum, S. sanguinis

## 1T-303 (LDYENMDCKKRIRI)
[3]
  Target(s): A. naeslundii, F. nucleatum, P. gingivalis,; also recorded: S. gordonii, S. mitis,; also recorded: S. mutans, S. oralis, S. salivarious,; also recorded: S. sanguinis

## PF-047 (NQEPSLQQDKEQKDNKG)
[3]
  Target(s): S. mutans

## PF-799 (YTHYNTALSYALLLTNKSSVP)
[2]
  Target(s): S. mutans

## 1T-297 (RSLRLNNALTKLPKLWYNRIKEAFYAYNDYDK)
[3]
  Target(s): A. naeslundii, F. nucleatum, T. denticola,; also recorded: S. mitis, S. mutans, S. oralis

## PF-166 (SKAVSRKRSI)
[3]
  Target(s): E. coli, C. jeikeium

## Rv2369c (VRQVPVDRPESRHQKPGDVPRDPRC)
[3]
  Target(s): C. albicans

## 1T-81 (AIATGLDIVDGKFDGYLWA)
[1]
  Target(s): S. pneumoniae

## PF-130 (LQRSDEESMPRRHEKYS)
[3]
  Target(s): E. faecalis, C. jeikeium, C. jejuni

## 1T-301 (SKLPRVLDASLKL)
[3]
  Target(s): F. nucleatum, S. gordonii, S. sanguinis

## PF-062 (MKKKRINNDILGRMIYSSSIDKRNLYNLKYYE)
[3]
  Target(s): S. epidermidis, M. luteus, E. coli,; also recorded: P. aeruginosa, MRSA, S. pneumoniae,; also recorded: E. faecalis, C. jeikeium

## 1T-134 (SRLVREIKKKCRKS)
[1]
  Target(s): A. naeslundii, F. nucleatum, P. gingivalis,; also recorded: S. epidermidis, S. gordonii,; also recorded: S. mitis, S. mutans, S. oralis,; also recorded: S. salivarious, S. sanguinis

## 1T-24 (EEAEEKLAEVSQAVKRLVR)
[1]
  Target(s): P. aeruginosa

## PF-796 (YTQSNIPTAYALMLSNKDSI)
[2]
  Target(s): S. mutans

## 1T-294 (YDKIADGVFKIGKRGVL)
[3]
  Target(s): T. denticola

## 1T-190 (IQIIVNAFVEKDKTGAVIEVLYASNNHEKVKAKYEELVAIS)
[1]
  Target(s): A. naeslundii, F. nucleatum, P. gingivalis,; also recorded: S. epidermidis, S. gordonii,; also recorded: S. mitis, S. mutans, S. oralis,; also recorded: S. salivarious, S. sanguinis

## 1T-78 (FFKTIFVLILGALGVAAGLYIEKNYIDK)
[1]
  Target(s): S. pneumoniae

## PF-131 (RRAAARTKGNRR)
[3]
  Target(s): S. epidermidis, E. coli, MRSA, C. jeikeium

## PF-139 (ALSKPAIQARTLCRRQDPP)
[3]
  Target(s): S. epidermidis, M. luteus, P. mirabilis,; also recorded: E. coli, P. aeruginosa,; also recorded: C. albicans, S. pneumoniae, E. faecalis,; also recorded: C. jeikeium, C. jejuni

## 1T-163 (MENILIYIPMVLSPFGSGILLFLGKDRRYML)
[1]
  Target(s): A. naeslundii, F. nucleatum, P. gingivalis,; also recorded: S. epidermidis, S. gordonii,; also recorded: S. mitis, S. mutans, S. oralis,; also recorded: S. salivarious, S. sanguinis

## PF-S029 (TSDTQSQSPWLFDNADIVNIYPVQLMHSSDND)
[2]
  Target(s): M. luteus, P. mirabilis, E. coli, C. albicans,; also recorded: C. jeikeium, C. jejuni

## PF-C080 (INIPGLF)
[2]
  Target(s): A. naeslundii, F. nucleatum, S. mutans

## 1T-185 (HYHFLLEFGFHKGDYLE)
[1]
  Target(s): A. naeslundii, F. nucleatum, P. gingivalis,; also recorded: T. denticola, S. gordonii,; also recorded: S. mitis, S. mutans, S. oralis,; also recorded: S. salivarious, S. sanguinis

## PF-173 (AGRTAIVQGGG)
[3]
  Target(s): S. epidermidis, M. luteus, P. mirabilis,; also recorded: E. coli, P. aeruginosa,; also recorded: C. albicans, C. jeikeium, C. jejuni

## PF-070 (SMVKSEIVDLLNGEDNDD)
[3]
  Target(s): S. epidermidis, C. jejuni

## PF-S018 (GMPQIPRLRI)
[3]
  Target(s): yeast and hyphal forms
[2]
  Target(s): S. epidermidis, M. luteus, C. albicans,; also recorded: MRSA, E. faecalis, C. jeikeium,; also recorded: C. jejuni

## PF-621 (PPSSFLV)
[3]
  Target(s): yeast and hyphal forms

## PF-X (TFFRLFNRSFTQALGK)
[2]
  Target(s): S. mutans

## PF-015 (SIDKRNLYNLKYYE)
[3]
  Target(s): E. faecalis, C. jeikeium

## 1T-120 (DVRDRVDLAGADLCAAHATR)
[1]
  Target(s): A. naeslundii, F. nucleatum, P. gingivalis,; also recorded: S. epidermidis, S. gordonii,; also recorded: S. mitis, S. mutans, S. oralis,; also recorded: S. salivarious, S. sanguinis

## 1T-58 (CDDLHALERAGKLDALLSA)
[1]
  Target(s): P. aeruginosa

## 1T-61 (HATLLPAVREAISRQLLPALVPRG)
[1]
  Target(s): P. aeruginosa

## PF-162 (GIRRLHSVENLNREISHRMAGLR)
[3]
  Target(s): S. epidermidis, MRSA

## PF-160 (SFHASLTKNEKPIKSTG)
[3]
  Target(s): S. epidermidis

## 1T-265 (GMFENLLMINFQIMNDLKIEIVVKDRICAV)
[3]
  Target(s): A. naeslundii, F. nucleatum, P. gingivalis,; also recorded: S. epidermidis, S. gordonii,; also recorded: S. mitis, S. mutans, S. oralis,; also recorded: S. salivarious, S. sanguinis

## PF-024 (DLRKAK)
[3]
  Target(s): C. albicans hyphae; also recorded: M. luteus, C. albicans, MRSA, E. faecalis,; also recorded: C. jeikeium

## PF-052 (QELINEAVNLLVKSK)
[3]
  Target(s): S. epidermidis, M. luteus, E. coli,; also recorded: MRSA, E. faecalis, C. jeikeium,; also recorded: C. jejuni

## PF-C160 (AASGFTYCASNGVWHPY)
[2]
  Target(s): F. nucleatum

## PF-050 (SYYLKRREEKGK)
[3]
  Target(s): S. epidermidis, M. luteus, E. coli,; also recorded: C. jeikeium

## PF-C145 (YGKESDP)
[2]
  Target(s): A. naeslundii, F. nucleatum, P. gingivalis,; also recorded: S. mutans, T. denticola

## 1T-57 (RLEYRRLETQVEENPESGRRPMRG)
[1]
  Target(s): P. aeruginosa

## 1T-290 (IINQLNLILLRLMEILIL)
[3]
  Target(s): A. naeslundii, F. nucleatum, P. gingivalis,; also recorded: S. gordonii, S. mitis,; also recorded: S. mutans, S. oralis, S. salivarious,; also recorded: S. sanguinis

## 1T-173 (LFRKEDQEHVLL)
[1]
  Target(s): A. naeslundii, F. nucleatum, P. gingivalis,; also recorded: S. gordonii, S. mitis,; also recorded: S. mutans, S. oralis, S. salivarious,; also recorded: S. sanguinis
